The source of these data is ChEMBL document CHEMBL4007471, “Assessment of new triplet forming artificial nucleobases as RNA ligands directed towards HCV IRES IIId loop” (Bioorg Med Chem Lett, 2017).

Some results are limits rather than exact numbers.

For assay [1], the system named is Internal ribosome entry site (IRES). Description: Binding affinity to HCV 5'-Alexa488-labeled IRES domain 3 loop RNA at 20 degC after overnight incubation by fluorescence assay. Also noted: species or system Hepacivirus hominis.
Assay [2] shares this test system. Briefly: Binding affinity to HCV 5'-Alexa488-labeled IRES domain 3 loop RNA at 5 degC after overnight incubation by fluorescence assay. Also noted: species or system Hepacivirus hominis.
The test system is the same in assay [3]. Briefly: Binding affinity to HCV 5'-Alexa488-labeled IRES domain 3 loop RNA at 10 degC after overnight incubation by fluorescence assay. Also noted: species or system Hepacivirus hominis.
Assay [4] has the same test system. Briefly: Binding affinity to HCV 5'-Alexa488-labeled IRES domain 3 loop RNA at 15 degC after overnight incubation by fluorescence assay. Also noted: species or system Hepacivirus hominis.
Assay [5] shares this test system. Description: Binding affinity to HCV 5'-Alexa488-labeled IRES domain 3 loop RNA at 30 degC after overnight incubation by fluorescence assay. Also noted: species or system Hepacivirus hominis.
For assay [6] the test system is unchanged. Briefly: Binding affinity to HCV 5'-Alexa488-labeled IRES domain 3 loop RNA at 36 degC after overnight incubation by fluorescence assay. Also noted: species or system Hepacivirus hominis.
Assay [7] shares this test system. Briefly: Binding affinity to HCV 5'-Alexa488-labeled IRES domain 3 loop RNA assessed as gibbs free energy change after overnight incubation by fluorescence assay. The following applies: Hepacivirus hominis.
The test system is the same in assay [8]. Briefly: Binding affinity to HCV 5'-Alexa488-labeled IRES domain 3 loop RNA assessed as change in enthalpy after overnight incubation by fluorescence assay. The following applies: Hepacivirus hominis.
Assay [9] has the same test system. Briefly: Binding affinity to HCV 5'-Alexa488-labeled IRES domain 3 loop RNA assessed as change in entropy after overnight incubation by fluorescence assay. The following applies: Hepacivirus hominis.
Assay [10] concerns the target Internal ribosome entry site (IRES). Briefly: Binding affinity to HCV IRES 5'Alexa488-GCCGAGGAGUGUUGGGUCGCGCAAGGC-3' RNA at 20 degC after overnight incubation by fluorescence assay. Also noted: species or system Hepacivirus hominis.
Assay [11] has the same target. Description: Binding affinity to HCV 5'-Alexa488-labeled IRES domain 3 loop RNA at 20 degC after overnight incubation in presence of 50-fold excess of tRNA by fluorescence assay. Also noted: species or system Hepacivirus hominis.
The subject of assay [12] is Internal ribosome entry site (IRES). Description: Selectivity ratio of Kd for 5'-Alexa488-labeled IRES domain 3 loop RNA in presence of 50-fold excess of tRNA at 20 degC to Kd for HCV 5'-Alexa488-labeled IRES domain 3 loop RNA at 20 degC. The following applies: Hepacivirus hominis.
Assay [13] shares this test system. Briefly: Potency index, ratio of neomycin Kd to compound Kd for HCV 5'-Alexa488-labeled IRES domain 3 loop RNA at 20 degC. To be noted: Hepacivirus hominis.
Assay [14] shares this test system. Description: Selectivity ratio of Kd for HCV IRES 5'Alexa488-GCCGAGGAGUGUUGGGUCGCGCAAGGC-3' RNA at 20 degC to Kd for HCV 5'-Alexa488-labeled IRES domain 3 loop RNA at 20 degC. The following applies: Hepacivirus hominis.

On to `NCC(=O)NCC(=O)Nc1nc2ccccc2[nH]1`, for which the Kd entry in assay [1], in assay [2], in [3], in assay [4], in assay [5] and in [6] was “Not Active” in each case.

In the case of `CC(=O)Nc1nccc(-c2cccc(NC(=O)CCCN(C)C)c2)n1`, the Kd in assay [1] (read-out: Kd) is 36.9 µM; in [2] (read-out: Kd) it was 29.5 µM; in assay [3] (read-out: Kd), 31.5 µM; in assay [4] (read-out: Kd) it was 34.8 µM; in assay [5] (read-out: Kd), 38.4 µM; in assay [6] (read-out: Kd), 32.5 µM. Also, the deltaG in assay [7] was -6.02 kcal/mol. The deltaH in assay [8] is -1.91 kcal/mol. Further, the TdeltaS in assay [9] was 4.11 kcal/mol.

`CC(=O)Nc1nccc(-c2cccc(NC(=O)c3cccnc3)c2)n1`: the Kd is 659 µM in [1] (read-out: Kd); 137 µM in [2] (read-out: Kd); 290 µM in assay [3] (read-out: Kd); 360 µM in assay [4] (read-out: Kd); “Not Active” in assay [5]; “Not Active” in assay [6].

For the compound `CC(=O)Nc1nccc(-c2cccc(NC(=O)c3nccnc3N)c2)n1`, the Kd in assay [1] (read-out: Kd) is 232 µM; in assay [2] (read-out: Kd), 81.5 µM; in assay [3] (read-out: Kd), 138 µM; in [4] (read-out: Kd) it was 158 µM; in [5] it was “Not Active”; in [6] it was “Not Active”.

Take `CC(=O)Nc1nccc(-c2cccc(NC(=O)CN)c2)n1`: the Kd is 863 µM in assay [1] (read-out: Kd); 177 µM in assay [2] (read-out: Kd); 284 µM in assay [3] (read-out: Kd); 438 µM in [4] (read-out: Kd); “Not Active” in assay [5]; “Not Active” in [6].

`NCCCC(=O)NCC(=O)Nc1nc2ccccc2[nH]1`: the Kd entry in [1], in [2], in assay [3], in [4], in [5] and in assay [6] was “Not Active” in each case.

For `CC(=O)Nc1nccc(-c2cccc(NC(=O)[C@@H](N)Cc3c[nH]cn3)c2)n1`, the Kd in assay [1] (read-out: Kd) worked out at 19.7 µM; in assay [2] (read-out: Kd), 8.6 µM; in assay [3] (read-out: Kd), 11.8 µM; in [4] (read-out: Kd) it was 15 µM; in assay [5] (read-out: Kd) it was 50.8 µM; in assay [6] (read-out: Kd), 262 µM. Also, the deltaG in assay [7] is -6.19 kcal/mol. Moreover, the deltaH in [8] was -11.6 kcal/mol. Besides, the TdeltaS in [9] was -5.4 kcal/mol.

Regarding `CC(=O)Nc1nccc(-c2cccc(N)c2)n1`, the dissociation constant (Kd) result in assay [1] is on record as “Not Active”.

For the compound `CC(=O)Nc1nccc(-c2cccc(NC(=O)[C@@H](N)CN)c2)n1`, the Kd in assay [1] (read-out: Kd) was 10.1 µM; in [2] (read-out: Kd), 5.1 µM; in assay [3] (read-out: Kd), 6.5 µM; in assay [4] (read-out: Kd) it was 7.6 µM; in assay [5] (read-out: Kd) it was 18.4 µM; in assay [6] (read-out: Kd), 30.1 µM. The deltaG in [7] was -6.64 kcal/mol. Moreover, in [8], the deltaH was -9.63 kcal/mol. In addition, the TdeltaS in [9] is -2.99 kcal/mol.

Regarding `NCCCCCC(=O)NCC(=O)Nc1nc2ccccc2[nH]1`, the Kd result in assay [1], in assay [2], in [3], in [4], in assay [5] and in [6] was “Not Active” each time. Moreover, the Kd in [10] (read-out: Kd) is 41.4 µM.

For `CC(=O)Nc1nccc(-c2cccc(NC(=O)CCCCCNC(=O)[C@@H](N)CN)c2)n1`, the Kd stood at 16.8 µM in assay [1] (read-out: Kd); 9.4 µM in assay [2] (read-out: Kd); 11.6 µM in assay [3] (read-out: Kd); 14.2 µM in assay [4] (read-out: Kd); 27.7 µM in assay [5] (read-out: Kd); 42.6 µM in assay [6] (read-out: Kd). For the same compound, the deltaG in assay [7] is -6.33 kcal/mol. Moreover, the deltaH in [8] is -8.08 kcal/mol. Further, in [9], the TdeltaS was -1.74 kcal/mol.

In the case of `NCCCC[C@H](N)C(=O)O` [LYSINE], the Kd entry in assay [1] is given as “Not Active”.

Consider `CC(=O)Nc1nccc(-c2cccc(NC(=O)CCCN)c2)n1`, for which the Kd in assay [1] (read-out: Kd) was 220 µM; in [2] (read-out: Kd), 102 µM; in [3] (read-out: Kd), 122 µM; in [4] (read-out: Kd), 159 µM; in [5], “Not Active”; in [6], “Not Active”.

As for `CC(=O)Nc1nccc(-c2cccc(NC(=O)CCCCCN)c2)n1`, the Kd amounted to 11.8 µM in [1] (read-out: Kd); 10.8 µM in assay [2] (read-out: Kd); 11.1 µM in assay [3] (read-out: Kd); 11.4 µM in assay [4] (read-out: Kd); 12 µM in [5] (read-out: Kd); 11.4 µM in assay [6] (read-out: Kd). The figures for the dissociation constant Kd entry in assay [10] and in assay [11] were “Not Active” and 17.1 µM, respectively. The deltaG in assay [7] is -6.62 kcal/mol. In addition, the deltaH in assay [8] was -0.741 kcal/mol. Besides, in assay [9], the TdeltaS turned out to be 5.88 kcal/mol. In [12], the Selectivity ratio is 1.4.

With `CC(=O)Nc1nccc(-c2cccc(NC(=O)[C@@H](N)CCCCN)c2)n1`, the Kd in assay [1] (read-out: Kd) was found to be 4.3 µM; in assay [2] (read-out: Kd), 3.2 µM; in assay [3] (read-out: Kd), 3.4 µM; in [4] (read-out: Kd), 3.8 µM; in assay [5] (read-out: Kd), 6.2 µM; in assay [6] (read-out: Kd) it was 8.6 µM. The Kd in assay [10] (read-out: Kd) was 554 µM; in [11], 10.5 µM. Also, the Ratio in [13] was determined as 2. Moreover, the deltaG in assay [7] was -7.17 kcal/mol. In addition, the deltaH in assay [8] was -6.14 kcal/mol. In addition, the TdeltaS in assay [9] amounted to 1.03 kcal/mol. The Selectivity ratio was over 100 in assay [14] and 2.4 in assay [12].

In the case of `NCC1O[C@H](O[C@H]2[C@@H](O)[C@H](O[C@H]3[C@H](O)[C@@H](N)C[C@@H](N)[C@@H]3O[C@H]3O[C@H](CN)[C@@H](O)[C@H](O)[C@H]3N)O[C@@H]2CO)[C@H](N)[C@@H](O)[C@@H]1O` (stereo partly specified), the Kd in assay [1] (read-out: Kd) came to 8.5 µM; in assay [2] (read-out: Kd), 5.7 µM; in assay [3] (read-out: Kd), 6.1 µM; in assay [4] (read-out: Kd), 6.5 µM; in assay [5] (read-out: Kd), 15.6 µM; in [6] (read-out: Kd), 24.1 µM. Also, the deltaG in assay [7] is -6.72 kcal/mol. In addition, in assay [8], the deltaH was -9.51 kcal/mol. For the same compound, in assay [9], the TdeltaS is -2.8 kcal/mol.

One may read the Kd as a measure of binding affinity in units of concentration.
